Values of other authors, collected in patent publication US20060040940A1, “Imidazopyridines pyrimidines and triazines for enhancing cognition as gaba-a-alphas 5 receoptor subtype ligands” (priority 2001, published 2006).

Tests used:
benzodiazepine receptor [1] = details: reported in Psychobiology, 21:101-108
benzodiazepine receptor [2] = details: background statement

## COC(=O)c1cc2c(cn1)[nH]c1ccccc12 [β-CCM]
Benzodiazepine receptor [1]
  spatial learning in the Morris watermaze: enhanced spatial learning
Benzodiazepine receptor [2]
  proconvulsant effect: proconvulsant
